In the supplement of paper PMC11061612:

How the values were obtained:
SG3199 = compound: CC1=CN2[C@@H](C1)C=NC3=CC(=C(C=C3C2=O)OC)OCCCCCOC4=C(C=C5C(=C4)N=C[C@@H]6CC(=CN6C5=O)C)OC [SG3199]; conditions: max 0.001 µM
Summary of the method: (§1)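 Following 24 hours at 37°C and 5% CO2, cancer cell lines in 1536-well plates with 7.5 μl DMEM/F12 or RPMI and 10% FBS were dosed for 72 hours, final DMSO typically being 0.2%. CellTiter-Glo 2.0 luminescence, scaled between blank-well and DMSO-well means, gave the viability readout. Dose responses were fitted to a two-parameter logistic curve with a non-linear mixed effects model, and the single-agent IC50 was derived from this fit.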

AZD1390 = compound: CC(C)n1c(=O)n(C)c2cnc3cc(F)c(-c4ccc(OCCCN5CCCCC5)nc4)cc3c21 [AZD1390]; conditions: max 0.3 µM
Summary of the method: as §1

Doxorubicin = compound: COc1cccc2c1C(=O)c1c(O)c3c(c(O)c1C2=O)C[C@@](O)(C(=O)CO)C[C@@H]3O[C@H]1C[C@H](N)[C@H](O)[C@H](C)O1 [Doxorubicin]; conditions: max 1 µM
Summary of the method: as §1

AZD7648 = compound: Cc1cc2ncnn2cc1Nc1ncc2c(n1)n(C1CCOCC1)c(=O)n2C [AZD7648]; conditions: max 10 µM
Summary of the method: as §1

Dasatinib = compound: CC1=C(C(=CC=C1)Cl)NC(=O)C2=CN=C(S2)NC3=CC(=NC(=N3)C)N4CCN(CC4)CCO [Dasatinib]; conditions: max 2 µM
Summary of the method: as §1

Olaparib = compound: O=C(c1cc(Cc2n[nH]c(=O)c3ccccc23)ccc1F)N1CCN(C(=O)C2CC2)CC1 [Olaparib]; conditions: max 10 µM
Summary of the method: as §1

AZD5991 = compound: Cc1c2c(nn1C)CSCc1cc(n(C)n1)CSc1cc(c3ccccc3c1)OCCCc1c(C(=O)O)n(C)c3c-2c(Cl)ccc13 [AZD5991]; conditions: max 1 µM
Summary of the method: as §1

AZD0156 = compound: CN(C)CCCOc1ccc(-c2ccc3ncc4c(c3c2)n(C2CCOCC2)c(=O)n4C)cn1 [AZD0156]; conditions: max 3 µM
Summary of the method: as §1

AZD1775 = compound: C=CCn1c(=O)c2cnc(Nc3ccc(N4CCN(C)CC4)cc3)nc2n1-c1cccc(C(C)(C)O)n1 [AZD1775]; conditions: max 3 µM
Summary of the method: as §1

Alisertib = compound: COc1cc(Nc2ncc3c(n2)-c2ccc(Cl)cc2C(c2c(F)cccc2OC)=NC3)ccc1C(=O)O [Alisertib]; conditions: max 10 µM
Summary of the method: as §1

Gefitinib = compound: COc1cc2ncnc(Nc3ccc(F)c(Cl)c3)c2cc1OCCCN1CCOCC1 [Gefitinib]; conditions: max 10 µM
Summary of the method: as §1

Crizotinib = compound: C[C@@H](Oc1cc(-c2cnn(C3CCNCC3)c2)cnc1N)c1c(Cl)ccc(F)c1Cl [Crizotinib]; conditions: max 10 µM
Summary of the method: as §1

SN-38 = compound: CCc1c2c(nc3ccc(O)cc13)-c1cc3c(c(=O)n1C2)COC(=O)[C@]3(O)CC [SN-38]; conditions: max 0.3 µM
Summary of the method: as §1

AZD6738 = compound: C[C@@H]1COCCN1C2=NC(=NC(=C2)C3(CC3)[S@](=N)(=O)C)C4=C5C=CNC5=NC=C4 [AZD6738]; conditions: max 10 µM
Summary of the method: as §1

Lapatinib = compound: CS(=O)(=O)CCNCc1ccc(-c2ccc3ncnc(Nc4ccc(OCc5cccc(F)c5)c(Cl)c4)c3c2)o1 [Lapatinib]; conditions: max 10 µM
Summary of the method: as §1

Selumetinib = compound: Cn1cnc2c(F)c(Nc3ccc(Br)cc3Cl)c(C(=O)NOCCO)cc21 [Selumetinib]; conditions: max 10 µM
Summary of the method: as §1

Prexasertib = compound: COc1cccc(OCCCN)c1-c1cc(Nc2cnc(C#N)cn2)n[nH]1 [Prexasertib]; conditions: max 1 µM
Summary of the method: as §1

AZD4320 = compound: CN(CC[C@H](CSC1=CC=CC=C1)NC2=C(C=C(C=C2)S(=O)(=O)NC(=O)C3=CC=C(C=C3)N4CCC(CC4)[C@H](C5=CC=CC=C5C6=CC=C(C=C6)Cl)O)S(=O)(=O)C(F)(F)F)CCO [AZD4320]; conditions: max 1 µM
Summary of the method: as §1

Savolitinib = compound: C[C@@H](c1ccc2nccn2c1)n1nnc2ncc(-c3cnn(C)c3)nc21 [Savolitinib]; conditions: max 1 µM
Summary of the method: as §1

AZD2811 = compound: CCN(CCO)CCCOc1ccc2c(Nc3cc(CC(=O)Nc4cccc(F)c4)[nH]n3)ncnc2c1 [AZD2811]; conditions: max 1 µM
Summary of the method: as §1

Capivasertib = compound: C1CN(CCC1(C(=O)N[C@@H](CCO)C2=CC=C(C=C2)Cl)N)C3=NC=NC4=C3C=CN4 [Capivasertib]; conditions: max 10 µM
Summary of the method: as §1

Venetoclax = compound: CC1(C)CCC(CN2CCN(c3ccc(C(=O)NS(=O)(=O)c4ccc(NCC5CCOCC5)c([N+](=O)[O-])c4)c(Oc4cnc5[nH]ccc5c4)c3)CC2)=C(c2ccc(Cl)cc2)C1 [Venetoclax]; conditions: max 1 µM
Summary of the method: as §1

Palbociclib = compound: CC(=O)c1c(C)c2cnc(Nc3ccc(N4CCNCC4)cn3)nc2n(C2CCCC2)c1=O [Palbociclib]; conditions: max 10 µM
Summary of the method: as §1

Taselisib = compound: Cc1nc(-c2cn3c(n2)-c2ccc(-c4cnn(C(C)(C)C(N)=O)c4)cc2OCC3)n(C(C)C)n1 [Taselisib]; conditions: max 10 µM
Summary of the method: as §1

Trametinib = compound: CC(=O)Nc1cccc(-n2c(=O)n(C3CC3)c(=O)c3c(Nc4ccc(I)cc4F)n(C)c(=O)c(C)c32)c1 [Trametinib]; conditions: max 1 µM
Summary of the method: as §1

AZD5153 = compound: COc1nnc2ccc(N3CCC(c4ccc(OCCN5CCN(C)C(=O)[C@H]5C)cc4)CC3)nn12 [AZD5153]; conditions: max 1 µM
Summary of the method: as §1

AZD8186 = compound: C[C@@H](Nc1cc(F)cc(F)c1)c1cc(C(=O)N(C)C)cc2c(=O)cc(N3CCOCC3)oc12 [AZD8186]; conditions: max 3 µM
Summary of the method: as §1

Cell Line	IC50, cell viability 72 h (SG3199) [nM]	IC50, cell viability 72 h (AZD1390) [nM]	IC50, cell viability 72 h (Doxorubicin) [nM]	IC50, cell viability 72 h (AZD7648) [nM]	IC50, cell viability 72 h (Dasatinib) [nM]	IC50, cell viability 72 h (Olaparib) [nM]	IC50, cell viability 72 h (AZD5991) [nM]	IC50, cell viability 72 h (AZD0156) [nM]	IC50, cell viability 72 h (AZD1775) [nM]	IC50, cell viability 72 h (Alisertib) [nM]	IC50, cell viability 72 h (Gefitinib) [nM]	IC50, cell viability 72 h (Crizotinib) [nM]	IC50, cell viability 72 h (SN-38) [nM]	IC50, cell viability 72 h (AZD6738) [nM]	IC50, cell viability 72 h (Lapatinib) [nM]	IC50, cell viability 72 h (Selumetinib) [nM]	IC50, cell viability 72 h (Prexasertib) [nM]	IC50, cell viability 72 h (AZD4320) [nM]	IC50, cell viability 72 h (Savolitinib) [nM]	IC50, cell viability 72 h (AZD2811) [nM]	IC50, cell viability 72 h (Capivasertib) [nM]	IC50, cell viability 72 h (Venetoclax) [nM]	IC50, cell viability 72 h (Palbociclib) [nM]	IC50, cell viability 72 h (Taselisib) [nM]	IC50, cell viability 72 h (Trametinib) [nM]	IC50, cell viability 72 h (AZD5153) [nM]	IC50, cell viability 72 h (AZD8186) [nM]
CHP-212 (Neuroblastoma)	> 1	> 300	254	> 10000	59.6	> 10000	257	> 3000	221	64.3	> 10000	2070	17.5	1830	> 10000	12	51.5	> 1000	> 1000	169	> 10000	> 1000	3360	1080	< 1	59.2	> 3000
COLO-678 (Colorectal Carcinoma)	> 1	> 300	> 1000	> 10000	> 2000	> 10000	> 1000	> 3000	> 3000	> 10000	> 10000	> 10000	> 300	> 10000	> 10000	3440	> 1000	> 1000	> 1000	> 1000	> 10000	> 1000	> 10000	> 10000	264	> 1000	> 3000
DiFi (Colorectal Carcinoma)	> 1	> 300	961	> 10000	> 2000	> 10000	> 1000	> 3000	1420	5960	52.4	> 10000	33.3	3530	315	7260	16.7	> 1000	> 1000	595	> 10000	> 1000	> 10000	606	42.8	403	> 3000
EVSA-T (Breast Carcinoma)	> 1	> 300	> 1000	> 10000	> 2000	> 10000	56.1	> 3000	> 3000	6350	> 10000	3360	> 300	> 10000	4490	> 10000	> 1000	> 1000	> 1000	> 1000	289	> 1000	> 10000	1050	> 1000	65.2	199
HDQ-P1 (Breast Carcinoma)	> 1	> 300	> 1000	> 10000	103	> 10000	> 1000	> 3000	565	> 10000	> 10000	> 10000	95.8	> 10000	> 10000	> 10000	530	> 1000	> 1000	> 1000	> 10000	> 1000	> 10000	4570	> 1000	> 1000	> 3000
HL-60 (Acute Myeloid Leukemia)	> 1	> 300	159	> 10000	> 2000	> 10000	35.7	> 3000	1670	407	> 10000	5820	6.04	7320	> 10000	642	16.6	32.7	> 1000	30.6	> 10000	80.3	> 10000	> 10000	12.4	37	> 3000
KARPAS-45 (T-Lymphoblastic Leukemia)	> 1	> 300	> 1000	> 10000	937	> 10000	93.1	> 3000	243	86.3	9060	1170	> 300	3140	4370	> 10000	33.6	52.1	> 1000	6.87	3210	> 1000	624	1450	> 1000	25.1	> 3000
KCL-22 (Chronic Myelogenous Leukemia)	> 1	> 300	335	> 10000	< 2	> 10000	369	> 3000	525	8160	> 10000	2010	37.9	927	> 10000	> 10000	13.8	> 1000	> 1000	> 1000	> 10000	> 1000	> 10000	> 10000	915	273	> 3000
